SMILES strings stand for the structures. pIC50: −log10 of the molar value. Like-named read-outs stand apart in the source and are kept apart here.

Results on 25 compounds are retold here after patent US20240059689A1, “PURINE DERIVATIVES AS ANTICANCER AGENTS” (Tango Therapeutics, Inc., priority 2021, published 2024).

One assay has as its system HCC1954. Nature of the assay: Viability assay, BRCA1 WT cell line HCC1954. In kind it is cell-based. The following applies: read-out: HCC1954 rel IC50. An excerpt: (§1) Table 1 also indicates IC50 values in a viability assay for a non-isogenic pair of BRCA1 mutant (column 5-MDA-MB-436) and BRCA1 WT (column 6—HCC1954) cell lines. These values indicate the effect of treatment with compound on cell survival.

The next assay relates to monoubiquitinated PCNA. The assay is described as follows: AlphaLISA assay measuring monoubiquitinated PCNA in MDA-MB-436. In kind it is cell-based. As to conditions: read-out: Alpha Lisa IC50. An excerpt:
Table 1 also indicates IC50 values for exemplary compounds in an AlphaLISA assay measuring monoubiquitinated PCNA in a BRCA1 mutant cell line (MDA-MB-436; column 7).

For another assay, the system named is MDA-MB-436. Nature of the assay: Viability assay, BRCA1 mutant cell line MDA-MB-436. It is filed as cell-based. As to conditions: BRCA1 mutant MDA-MB-436, read-out: MDA-MB-436 rel IC50.
Source text: as §1

The target in a further assay is USP1-UAF1 (Homo sapiens, UniProt O94782). Nature of the assay: Ubiquitin Rhodamine assay of USP1-UAF1 activity. It is filed as biochemical. On the procedure:
Certain compounds of the disclosure were assessed for USP1-UAF1 activity in a Ubiquitin Rhodamine assay as described in Biology Example 1.

The mark [1] stands for this setting: Homo sapiens, MDA-MB-436, monoubiquitinated PCNA.
Where [2] appears, read: Homo sapiens, HCC1954, viability.
The mark [3] stands for this setting: Homo sapiens, MDA-MB-436, viability.

Sequence of USP1-UAF1 (O94782 whole entry): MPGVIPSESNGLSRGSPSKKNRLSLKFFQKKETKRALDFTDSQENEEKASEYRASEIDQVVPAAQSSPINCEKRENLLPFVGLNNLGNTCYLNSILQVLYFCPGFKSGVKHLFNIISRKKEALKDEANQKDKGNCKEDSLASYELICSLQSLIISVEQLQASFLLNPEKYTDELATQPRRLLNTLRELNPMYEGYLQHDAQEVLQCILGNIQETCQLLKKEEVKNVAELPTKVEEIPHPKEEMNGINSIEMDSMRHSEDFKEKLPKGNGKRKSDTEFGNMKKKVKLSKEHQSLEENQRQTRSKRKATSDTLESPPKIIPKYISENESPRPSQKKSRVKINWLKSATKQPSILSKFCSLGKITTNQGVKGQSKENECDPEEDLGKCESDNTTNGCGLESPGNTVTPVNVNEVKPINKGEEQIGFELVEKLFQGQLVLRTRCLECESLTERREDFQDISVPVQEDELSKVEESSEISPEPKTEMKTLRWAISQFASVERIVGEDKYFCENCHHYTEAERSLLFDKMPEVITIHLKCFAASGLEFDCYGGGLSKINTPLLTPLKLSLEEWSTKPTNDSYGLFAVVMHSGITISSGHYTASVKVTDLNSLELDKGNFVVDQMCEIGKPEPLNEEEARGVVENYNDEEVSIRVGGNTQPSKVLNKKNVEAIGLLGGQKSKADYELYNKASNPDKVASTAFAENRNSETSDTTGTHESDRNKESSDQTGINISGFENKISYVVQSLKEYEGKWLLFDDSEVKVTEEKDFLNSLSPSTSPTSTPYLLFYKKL
Sequence of USP1-UAF1 (Q8TAF3 whole entry partner): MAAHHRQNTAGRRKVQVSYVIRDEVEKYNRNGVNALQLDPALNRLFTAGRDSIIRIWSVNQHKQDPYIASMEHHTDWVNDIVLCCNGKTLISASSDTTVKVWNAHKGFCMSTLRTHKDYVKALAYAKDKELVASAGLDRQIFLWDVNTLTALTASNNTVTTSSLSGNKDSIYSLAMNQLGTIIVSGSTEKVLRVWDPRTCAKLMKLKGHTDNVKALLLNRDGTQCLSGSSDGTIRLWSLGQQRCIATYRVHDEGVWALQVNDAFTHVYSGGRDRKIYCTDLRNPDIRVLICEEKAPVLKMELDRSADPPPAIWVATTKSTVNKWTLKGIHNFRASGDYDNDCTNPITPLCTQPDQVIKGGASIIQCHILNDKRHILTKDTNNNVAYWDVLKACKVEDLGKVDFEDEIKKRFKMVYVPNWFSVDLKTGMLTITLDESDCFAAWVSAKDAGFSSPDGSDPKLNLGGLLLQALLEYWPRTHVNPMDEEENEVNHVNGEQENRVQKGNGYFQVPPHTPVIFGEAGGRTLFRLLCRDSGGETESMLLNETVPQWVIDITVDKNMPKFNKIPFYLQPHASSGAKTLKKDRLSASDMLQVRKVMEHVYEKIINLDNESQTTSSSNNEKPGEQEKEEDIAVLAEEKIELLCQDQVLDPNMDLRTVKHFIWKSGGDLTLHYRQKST

As for `CC(C)c1ccccc1-c1ncc2c(n1)n(C(C)c1ccc(-c3nc(Cl)cn3C)cc1)c(=N)n2C` (single isomer, unassigned) [Example A-9c, 9-(1-(4-(4-chloro-1-methyl-1H-imidazol-2-yl)phenyl)ethyl)-2-(2-isopropylphenyl)-7-methyl-7,9-dihydro-8H-purin-8-imine], the pIC50 in the assay on HCC1954 (viability) is at most 5.00; in the assay on monoubiquitinated PCNA (setting [1]), 6.60 to 7.00; in the assay with MDA-MB-436 (viability) it was 5.00 to 6.60; at USP1-UAF1, 7.00 to 7.52.

In the case of `CC(C)c1ccccc1-c1ncc2c(n1)n(C(C)c1ccc(-c3nc(Cl)cn3C)cc1)c(=N)n2C` (single isomer, unassigned) [Example A-9d, 9-(1-(4-(4-chloro-1-methyl-1H-imidazol-2-yl)phenyl)ethyl)-2-(2-isopropylphenyl)-7-methyl-7,9-dihydro-8H-purin-8-imine], the pIC50 with HCC1954 (viability) is 5.00 to 6.60; with monoubiquitinated PCNA (monoubiquitinated PCNA), above 7.00; with MDA-MB-436 (viability), above 7.00; on USP1-UAF1, above 7.52.

Consider `Cc1nc(-c2ccccc2Cl)nc2c1n(C)c(=N)n2Cc1ccc(-c2nc(C(F)(F)F)cn2C)cc1` (single isomer, unassigned) [Example A-15a, 2-(2-chlorophenyl)-6,7-dimethyl-9-(4-(1-methyl-4-(trifluoromethyl)-1H-imidazol-2-yl)benzyl)-7,9-dihydro-8H-purin-8-imine], for which the negative-log IC50 (pIC50) with HCC1954 (setting [2]) is at most 5.00; in the assay with monoubiquitinated PCNA (setting [1]), 5.00 to 6.60; in the assay on MDA-MB-436 (setting [3]), 5.00 to 6.60; against USP1-UAF1, 7.00 to 7.52.

As to `CC(C)c1ccccc1-c1ncc2c(n1)n(Cc1ccc(-c3nc(C(F)(F)F)cn3C)c(F)c1)c(=N)n2C` [Example A-33, 9-(3-fluoro-4-(1-methyl-4-(trifluoromethyl)-1H-imidazol-2-yl)benzyl)-2-(2-isopropylphenyl)-7-methyl-7,9-dihydro-8H-purin-8-imine], the pIC50 with monoubiquitinated PCNA (setting [1]) is above 7.00; on USP1-UAF1 it was above 7.52.

On to `CC(C)c1ccccc1-c1ncc2c(n1)n(Cc1cc(F)c(-c3nc(C(F)(F)F)cn3C)c(F)c1)c(=N)n2C` [Example A-43, 9-(3,5-difluoro-4-(1-methyl-4-(trifluoromethyl)-1H-imidazol-2-yl)benzyl)-2-(2-isopropylphenyl)-7-methyl-7,9-dihydro-8H-purin-8-imine], for which the pIC50 in the assay on monoubiquitinated PCNA (setting [1]) was 5.00 to 6.60; at USP1-UAF1, 7.00 to 7.52.

`Cn1cc(C(F)(F)F)nc1-c1ccc(Cn2c(=N)n(C)c3cnc(-c4c(C(F)(F)F)cnn4C)nc32)cc1` [Example T-010]: the negative-log IC50 (pIC50) was 6.60 to 7.00 with monoubiquitinated PCNA (setting [1]), 5.00 to 6.60 with MDA-MB-436 (setting [3]) and 7.00 to 7.52 against USP1-UAF1.

As for `Cn1cc(C(F)(F)F)nc1-c1ccc(Cn2c(=N)n(C)c3cnc(-c4ccccc4C(F)(F)F)nc32)cc1` [Example T-045], the pIC50 was 6.60 to 7.00 in the assay on monoubiquitinated PCNA (setting [1]), above 7.00 in the assay on MDA-MB-436 (setting [3]) and above 7.52 at USP1-UAF1.

As to `COc1cc(C(F)(F)F)nn1-c1ccc(Cn2c(=N)n(C)c3cnc(-c4ccccc4C(F)(F)F)nc32)cn1` [Example T-055], the pIC50 in the assay with HCC1954 (setting [2]) was at most 5.00; with MDA-MB-436 (setting [3]), 5.00 to 6.60; against USP1-UAF1, 5.00 to 7.00.

Take `COc1ccn(-c2ccc(Cn3c(=N)n(C)c4cnc(-c5ccccc5C(C)C)nc43)cc2C)n1` [Example T-056]: the negative-log IC50 (pIC50) is 5.00 to 6.60 with HCC1954 (setting [2]), 5.00 to 6.60 with MDA-MB-436 (setting [3]) and 5.00 to 7.00 on USP1-UAF1.

Regarding `COc1ncncc1-c1ncc2c(n1)n(Cc1ccc(-c3nc(C(F)(F)F)cn3C)cc1)c(=N)n2C` [Example T-058], the pIC50 is at most 5.00 in the assay with HCC1954 (setting [2]), at most 5.00 in the assay on MDA-MB-436 (setting [3]) and 5.00 to 7.00 against USP1-UAF1.

`Cc1noc(C)c1-c1ncc2c(n1)n(Cc1ccc(-c3nc(C(F)(F)F)cn3C)cc1)c(=N)n2C` [Example T-062]: the pIC50 is at most 5.00 in the assay on HCC1954 (setting [2]), 5.00 to 6.60 in the assay with MDA-MB-436 (setting [3]) and 5.00 to 7.00 against USP1-UAF1.

Regarding `Cn1c(=N)n(Cc2ccc(-c3nc(C(F)(F)F)c[nH]3)c(F)c2)c2nc(-c3ccccc3C(F)(F)F)ncc21` [Example T-068], the pIC50 is 5.00 to 6.60 in the assay on HCC1954 (setting [2]), 5.00 to 6.60 in the assay on MDA-MB-436 (setting [3]) and 5.00 to 7.00 at USP1-UAF1.

`Cn1cc(C(F)(F)F)nc1-c1ccc(Cn2c(=N)n(C)c3cnc(-c4c(C(F)(F)F)nn(C)c4C#N)nc32)cc1` [Example T-072]: the values for the negative logarithm of the IC50 (pIC50) with HCC1954 (setting [2]), in the assay on MDA-MB-436 (setting [3]) and against USP1-UAF1 were 5.00 to 6.60, 5.00 to 6.60 and 5.00 to 7.00, respectively.

As for `Cn1cc(C(F)(F)F)nc1-c1ccc(Cn2c(=N)n(C)c3cnc(-c4ccccc4C(F)(F)F)nc32)cn1` [Example T-073], the negative logarithm of the IC50 (pIC50) was at most 5.00 in the assay on HCC1954 (setting [2]), 5.00 to 6.60 in the assay with MDA-MB-436 (setting [3]) and 5.00 to 7.00 on USP1-UAF1.

Turning to `COc1ccn(-c2ccc(Cn3c(=N)n(C)c4cnc(-c5ccccc5C(C)C)nc43)cc2F)n1` [Example T-074], the negative-log IC50 (pIC50) in the assay on HCC1954 (setting [2]) is 5.00 to 6.60; in the assay with MDA-MB-436 (setting [3]) it was 5.00 to 6.60; against USP1-UAF1, 5.00 to 7.00.

Consider `CNc1ncccc1-c1ncc2c(n1)n(Cc1ccc(-c3nc(C(F)(F)F)cn3C)cc1)c(=N)n2C` [Example T-075], for which the pIC50 is 5.00 to 6.60 in the assay with HCC1954 (setting [2]), 5.00 to 6.60 in the assay with MDA-MB-436 (setting [3]) and 5.00 to 7.00 against USP1-UAF1.

In the case of `Cn1c(=N)n(Cc2ccc(-c3nc(C(F)(F)F)cn3C3COC3)cc2)c2nc(-c3ccccc3C(F)(F)F)ncc21` [Example T-077], the results for the negative-log IC50 (pIC50) in the assay with HCC1954 (setting [2]), with MDA-MB-436 (setting [3]) and against USP1-UAF1 were at most 5.00, 5.00 to 6.60 and 5.00 to 7.00, respectively.

As to `Cc1cc(-c2nc(C(F)(F)F)cn2C)cc(C)c1Cn1c(=N)n(C)c2cnc(-c3ccccc3C(F)(F)F)nc21` [Example T-080], the pIC50 was 5.00 to 6.60 in the assay with HCC1954 (setting [2]), 5.00 to 6.60 with MDA-MB-436 (setting [3]) and 5.00 to 7.00 against USP1-UAF1.

As to `Cn1c(=N)n(Cc2ccc(-c3nc(C(F)(F)F)cn3CCO)cc2)c2nc(-c3ccccc3C(F)(F)F)ncc21` [Example T-083], the pIC50 was at most 5.00 with HCC1954 (setting [2]), 5.00 to 6.60 with MDA-MB-436 (setting [3]) and 5.00 to 7.00 at USP1-UAF1.

Regarding `COc1ncnc(C2CC2)c1-c1ncc2c(n1)n(C1(c3ccc(-c4nc(C(F)(F)F)cn4C)cc3)CC1)c(=N)n2C` [Example T-086], the results for the pIC50 with HCC1954 (setting [2]), in the assay on monoubiquitinated PCNA (setting [1]) and in the assay on MDA-MB-436 (setting [3]) were at most 5.00, 6.60 to 7.00 and 6.60 to 7.00, respectively.

On to `COc1ncnc(C2CC2)c1-c1ncc2c(n1)n(C[C@H]1CC[C@H](c3nc(C(F)(F)F)cn3C)CC1)c(=N)n2C` [Example T-089], for which the pIC50 with HCC1954 (setting [2]) is at most 5.00; in the assay with MDA-MB-436 (setting [3]), 5.00 to 6.60; at USP1-UAF1, 5.00 to 7.00.

For the compound `CCOc1cc(C(F)(F)F)nn1-c1ccc(Cn2c(=N)n(C)c3cnc(-c4ccccc4C(F)(F)F)nc32)cn1` [Example T-091], the values for the pIC50 in the assay with HCC1954 (setting [2]), in the assay with monoubiquitinated PCNA (setting [1]) and with MDA-MB-436 (setting [3]) were at most 5.00, 5.00 to 6.60 and 5.00 to 6.60, respectively.

Turning to `CC(C)c1cnccc1-c1ncc2c(n1)n(Cc1ccc(-c3nc(C(F)(F)F)cn3C)cc1)c(=N)n2C` [Example T-096], the figures for the pIC50 in the assay on HCC1954 (setting [2]), in the assay with MDA-MB-436 (setting [3]) and at USP1-UAF1 were at most 5.00, 5.00 to 6.60 and 5.00 to 7.00, respectively.

Turning to `Cn1cc(C(F)(F)F)nc1-c1ccc(Cn2c(=N)n(CC(F)(F)F)c3cnc(-c4c(C(F)(F)F)cnn4C)nc32)cc1` [Example T-101], the pIC50 with HCC1954 (setting [2]) was 5.00 to 6.60; with MDA-MB-436 (setting [3]), 6.60 to 7.00; at USP1-UAF1, above 7.52.

Take `COc1ncnc(C2CC2)c1-c1ncc2c(n1)n(Cc1ccc(-c3nc(C(F)(F)F)cn3C)cc1O)c(=N)n2C` [Example T-133, 2-[[2-(4-cyclopropyl-6-methoxy-pyrimidin-5-yl)-8-imino-7-methyl-purin-9-yl]methyl]-5-[1-methyl-4-(trifluoromethyl)imidazol-2-yl]phenol]: the negative-log IC50 (pIC50) with HCC1954 (setting [2]) is at most 5.00; in the assay with MDA-MB-436 (setting [3]) it was above 7.00; against USP1-UAF1 it was 7.00 to 7.52.
